Data: patent publication US20240238423A9, “TETRAHYDROISOQUINOLINE HETEROBIFUNCTIONAL BCL-XL DEGRADERS” (Treeline Biosciences, Inc., priority 2022, published 2024)
Where two headings read alike, the source gives them in different places.

Molecular target: T1, Human BCL-XL protein (N-terminal HiBiT tagged BCL-XL in HT1080 cells) (Homo sapiens, UniProt Q07817)
T1 construct: expressed in transfected cells; host or cells: HT-1080 (ATCC CCL-121), stably transduced with lentivirus pLV-UBC-N-HiBiT-BCL-XL-PGK-puro and selected with puromycin
Experiment: HiBiT based degradation assay
Assay type: cell-based
Settings: HT1080 cells expressing HiBiT-BCL-XL; for Ymin (24 h) / Ymin (6 h): BCL-XL degradation normalized with DMSO control; for DC50: BCL-XL degradation
In short: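 This HiBiT degradation assay measured loss of BCL-XL in HT1080 cells that stably express an N-terminal HiBiT-BCL-XL fusion delivered by lentivirus. Cells were added to compound-spotted 384-well plates, and luminescence was read on a PHERAstar FSX reader. Signal was expressed relative to DMSO controls, curves were fitted by four-parameter logistic regression, and for hook-shaped curves the Ymin point served as the bottom plateau when calculating EC50.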

T1 sequence (Q07817 whole entry): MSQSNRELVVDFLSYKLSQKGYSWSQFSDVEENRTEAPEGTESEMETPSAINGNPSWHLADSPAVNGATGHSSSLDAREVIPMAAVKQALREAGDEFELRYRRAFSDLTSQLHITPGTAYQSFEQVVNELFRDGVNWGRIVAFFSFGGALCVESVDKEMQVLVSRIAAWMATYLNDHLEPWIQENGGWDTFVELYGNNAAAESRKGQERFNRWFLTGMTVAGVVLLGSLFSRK

| Ymin (24 h) | DC50 (24 h, read-out: EC50 (24 h)) | Ymin (6 h) | DC50 (6 h, read-out: EC50 (6 h)) | SMILES |
| --- | --- | --- | --- | --- |
| A (Ymin < 50%) | < 100 nM |  |  | Cc1c(O[C@H]2CC[C@H](CCCN3CCN(c4ccc5c(C6CCC(=O)NC6=O)nn(C)c5c4C)CC3)CC2)cccc1-c1ccc(N2CCc3cccc(C(=O)Nc4nc5ccccc5s4)c3C2)nc1C(=O)O (stereo partly shown) [Compound 334a, 6-(8-(benzo[d]thiazol-2-ylcarbamoyl)-3,4-dihydroisoquinolin-2(1H)-yl)-3-(3-(((1s,4r)-4-(3-(4-(3-(2,6-dioxopiperidin-3-yl)-1,7-dimethyl-1H-indazol-6-yl)piperazin-1-yl)propyl)cyclohexyl)oxy)-2-methylphenyl)picolinic acid] |
|  |  | B (50% ≤ Ymin < 70%) | < 100 nM | Cc1c(-c2ccc(N3CCc4cccc(C(=O)Nc5nc6ccccc6s5)c4C3)nc2C(=O)NCCCCCC(=O)Nc2ccc3c(C4CCC(=O)NC4=O)nn(C)c3c2)cnn1CC12CC3CC(CC(C3)C1)C2 (stereo not shown) [Compound 111, 2-(5-(1-(((3r,5r,7r)-adamantan-1-yl)methyl)-5-methyl-1H-pyrazol-4-yl)-6-((6-((3-(2,6-dioxopiperidin-3-yl)-1-methyl-1H-indazol-6-yl)amino)-6-oxohexyl)carbamoyl)pyridin-2-yl)-N-(benzo[d]thiazol-2-yl)-1,2,3,4-tetrahydroisoquinoline-8-carboxamide] |
| B (50% ≤ Ymin < 70%) | 100 to 1000 nM | C (Ymin ≥ 70%) | 1000 to 10000 nM | Cc1c(Oc2ccc(CCCC(=O)Nc3ccc4c(C5CCC(=O)NC5=O)nn(C)c4c3)cc2)cccc1-c1ccc(N2CCc3cccc(C(=O)Nc4nc5ccccc5s4)c3C2)nc1C(=O)O (stereo not shown) [Compound 132, 6-(8-(benzo[d]thiazol-2-ylcarbamoyl)-3,4-dihydroisoquinolin-2(1H)-yl)-3-(3-(4-(4-((3-(2,6-dioxopiperidin-3-yl)-1-methyl-1H-indazol-6-yl)amino)-4-oxobutyl)phenoxy)-2-methylphenyl)picolinic acid] |
| B (50% ≤ Ymin < 70%) | < 100 nM |  |  | Cc1c(OCCC[C@H]2CCN(CC(=O)Nc3cccc4c(C5CCC(=O)NC5=O)nn(C)c34)C2)cccc1-c1ccc(N2CCc3cccc(C(=O)Nc4nc5ccccc5s4)c3C2)nc1C(=O)O (stereo partly drawn) [Compound 240b, 6-(8-(benzo[d]thiazol-2-ylcarbamoyl)-3,4-dihydroisoquinolin-2(1H)-yl)-3-(3-(3-((3S)-1-(2-((3-(2,6-dioxopiperidin-3-yl)-1-methyl-1H-indazol-7-yl)amino)-2-oxoethyl)pyrrolidin-3-yl)propoxy)-2-methylphenyl)picolinic acid] |
| A (Ymin < 50%) | < 100 nM |  |  | Cc1c(O[C@H]2CC[C@H](CCCN3CCN(c4ccc5c(C6CCC(=O)NC6=O)nn(C)c5c4)CC3(C)C)CC2)cccc1-c1ccc(N2CCc3cccc(C(=O)Nc4nc5ccccc5s4)c3C2)nc1C(=O)O (stereo partly shown) [Compound 336a, 6-(8-(benzo[d]thiazol-2-ylcarbamoyl)-3,4-dihydroisoquinolin-2(1H)-yl)-3-(3-(((1s,4r)-4-(3-(4-(3-(2,6-dioxopiperidin-3-yl)-1-methyl-1H-indazol-6-yl)-2,2-dimethylpiperazin-1-yl)propyl)cyclohexyl)oxy)-2-methylphenyl)picolinic acid] |
| B (50% ≤ Ymin < 70%) | 100 to 1000 nM |  |  | Cc1c(OCCCN2CCN(CCCOc3ccc4c(C5CCC(=O)NC5=O)nn(C)c4c3)C(C(F)(F)F)C2)cccc1-c1ccc(N2CCc3cccc(C(=O)Nc4nc5ccccc5s4)c3C2)nc1C(=O)O (stereo not shown) [Compound 165, 6-(8-(benzo[d]thiazol-2-ylcarbamoyl)-3,4-dihydroisoquinolin-2(1H)-yl)-3-(3-(3-(4-(3-((3-(2,6-dioxopiperidin-3-yl)-1-methyl-1H-indazol-6-yl)oxy)propyl)-3-(trifluoromethyl)piperazin-1-yl)propoxy)-2-methylphenyl)picolinic acid] |
| B (50% ≤ Ymin < 70%) | < 100 nM |  |  | Cc1c(O[C@H]2CC[C@H](CCN3CCN(c4ccc5c(C6CCC(=O)NC6=O)nn(C)c5c4)CC3)CC2)cccc1-c1ccc(N2CCc3cccc(C(=O)Nc4nc5ccccc5s4)c3C2)nc1C(=O)O (stereo partly shown) [Compound 211a, 6-(8-(benzo[d]thiazol-2-ylcarbamoyl)-3,4-dihydroisoquinolin-2(1H)-yl)-3-(3-(((1r,4r)-4-(2-(4-(3-(2,6-dioxopiperidin-3-yl)-1-methyl-1H-indazol-6-yl)piperazin-1-yl)ethyl)cyclohexyl)oxy)-2-methylphenyl)picolinic acid] |
| A (Ymin < 50%) | < 100 nM |  |  | Cc1c(OCCC[C@@H]2CCN(CC(=O)Nc3ccc4c(C5CCC(=O)NC5=O)nn(C)c4c3)C2)cccc1-c1ccc(N2CCc3cccc(C(=O)Nc4nc5ccccc5s4)c3C2)nc1C(=O)O (stereo partly drawn) [Compound 160a, 6-[8-(1,3-benzothiazol-2-ylcarbamoyl)-3,4-dihydro-1H-isoquinolin-2-yl]-3-[3-[3-[(3R)-1-[2-[[3-(2,6-dioxo-3-piperidyl)-1-methyl-indazol-6-yl]amino]-2-oxo-ethyl]pyrrolidin-3-yl]propoxy]-2-methyl-phenyl]pyridine-2-carboxylic acid] |
| A (Ymin < 50%) | < 100 nM |  |  | Cc1c(O[C@H]2CC[C@H](C[C@@H](C)CN3CCN(c4cccc5c(C6CCC(=O)NC6=O)nn(C)c45)CC3)CC2)cccc1-c1ccc(N2CCc3cccc(C(=O)Nc4nc5ccccc5s4)c3C2)nc1C(=O)O (single isomer, unassigned) [Compound 284b, 6-(8-(benzo[d]thiazol-2-ylcarbamoyl)-3,4-dihydroisoquinolin-2(1H)-yl)-3-(3-(((1R,4r)-4-((2R*)-3-(4-(3-(2,6-dioxopiperidin-3-yl)-1-methyl-1H-indazol-7-yl)piperazin-1-yl)-2-methylpropyl)cyclohexyl)oxy)-2-methylphenyl)picolinic acid] |
| A (Ymin < 50%) | < 100 nM |  |  | Cc1cc(O[C@H]2CC[C@H](CCC(=O)N3CCN(c4cccc5c(C6CCC(=O)NC6=O)nn(C)c45)CC3)CC2)ccc1-c1ccc(N2CCc3cccc(C(=O)Nc4nc5ccccc5s4)c3C2)nc1C(=O)O (stereo partly shown) [Compound 252a, 6-(8-(benzo[d]thiazol-2-ylcarbamoyl)-3,4-dihydroisoquinolin-2(1H)-yl)-3-(4-(((1r,4r)-4-(3-(4-(3-(2,6-dioxopiperidin-3-yl)-1-methyl-1H-indazol-7-yl)piperazin-1-yl)-3-oxopropyl)cyclohexyl)oxy)-2-methylphenyl)picolinic acid] |
| A (Ymin < 50%) | < 100 nM |  |  | Cc1c(O[C@H]2CC[C@H](CCCN3CCC(c4cccc5c(C6CCC(=O)NC6=O)nn(C)c45)CC3)CC2)cccc1-c1ccc(N2CCc3cccc(C(=O)Nc4nc5ccccc5s4)c3C2)nc1C(=O)O (stereo partly shown) [Compound 270a, 6-(8-(benzo[d]thiazol-2-ylcarbamoyl)-3,4-dihydroisoquinolin-2(1H)-yl)-3-(3-(((1s,4r)-4-(3-(4-(3-(2,6-dioxopiperidin-3-yl)-1-methyl-1H-indazol-7-yl)piperidin-1-yl)propyl)cyclohexyl)oxy)-2-methylphenyl)picolinic acid] |
| A (Ymin < 50%) | < 100 nM | A (Ymin < 50%) | < 100 nM | Cc1c(OCC2CC3(CCN(CC(=O)Nc4ccc5c(C6CCC(=O)NC6=O)nn(C)c5c4)CC3)C2)cccc1-c1ccc(N2CCc3cccc(C(=O)Nc4nc5ccccc5s4)c3C2)nc1C(=O)O (stereo not shown) [Compound 156, 6-(8-(benzo[d]thiazol-2-ylcarbamoyl)-3,4-dihydroisoquinolin-2(1H)-yl)-3-(3-((7-(2-((3-(2,6-dioxopiperidin-3-yl)-1-methyl-1H-indazol-6-yl)amino)-2-oxoethyl)-7-azaspiro[3.5]nonan-2-yl)methoxy)-2-methylphenyl)picolinic acid] |
| A (Ymin < 50%) | < 100 nM |  |  | Cc1c(OCCCC2CC3(C2)CN(CC(=O)Nc2ccc4c(C5CCC(=O)NC5=O)nn(C)c4c2)C3)cccc1-c1ccc(N2CCc3cccc(C(=O)Nc4nc5ccccc5s4)c3C2)nc1C(=O)O (stereo not shown) [Compound 286, 6-[8-(1,3-benzothiazol-2-ylcarbamoyl)-3,4-dihydro-1H-isoquinolin-2-yl]-3-[3-[3-[2-[2-[[3-(2,6-dioxo-3-piperidyl)-1-methyl-indazol-6-yl]amino]-2-oxo-ethyl]-2-azaspiro[3.3]heptan-6-yl]propoxy]-2-methyl-phenyl]pyridine-2-carboxylic acid] |
| A (Ymin < 50%) | < 100 nM |  |  | Cc1c(O[C@H]2CC[C@H]([C@@H](C)CCN3CCN(c4ccc5c(C6CCC(=O)NC6=O)nn(C)c5c4)CC3)CC2)cccc1-c1ccc(N2CCc3cccc(C(=O)Nc4nc5ccccc5s4)c3C2)nc1C(=O)O (single isomer, unassigned) [Compound 310b] |
| A (Ymin < 50%) | < 100 nM |  |  | Cc1c(O[C@H]2CC[C@H](CCCCN3CCN(c4cccc5c(C6CCC(=O)NC6=O)nn(C)c45)C[C@H]3C)CC2)cccc1-c1ccc(N2CCc3cccc(C(=O)Nc4nc5ccccc5s4)c3C2)nc1C(=O)O (stereo partly drawn) [Compound 345a, 6-(8-(benzo[d]thiazol-2-ylcarbamoyl)-3,4-dihydroisoquinolin-2(1H)-yl)-3-(3-(((1s,4r)-4-(4-((2R)-4-(3-(2,6-dioxopiperidin-3-yl)-1-methyl-1H-indazol-7-yl)-2-methylpiperazin-1-yl)butyl)cyclohexyl)oxy)-2-methylphenyl)picolinic acid] |
